Data from publication PMC7271629 (ACS chemical biology, 2020).

Tests used:
[1] = test system: BD1 and BD2 within a BET protein; conditions: cited from earlier work
[2] = test system: c-Myc expression in K562 chronic myelogenous leukemia cells; test: c-Myc expression in K562 cells; format: cell-based, human

Compound | affinity of bivalent engagement of BD1 and BD2 [1] | effect on c-Myc expression [2]
Cc1sc2c(c1C)C(c1ccc(Cl)cc1)=N[C@@H](CC(=O)NCCOCCOCCOCCOCCOCCOCCOCCNC(=O)C[C@@H]1N=C(c3ccc(Cl)cc3)c3c(sc(C)c3C)-n3c(C)nnc31)c1nnc(C)n1-2 [MT1] | subnanomolar | –
Cc1sc2c(c1C)C(c1ccc(Cl)cc1)=N[C@@H](CC(=O)OC(C)(C)C)c1nnc(C)n1-2 [JQ1] | – | attenuated c-Myc expression
